pKd: −log10 of the molar value.
biological target: T1, Nitric oxide synthase oxygenase (Bacillus subtilis (strain 168), UniProt O34453); assay: Imidazole Spin Shift Assay
T1 sequence (O34453 whole entry): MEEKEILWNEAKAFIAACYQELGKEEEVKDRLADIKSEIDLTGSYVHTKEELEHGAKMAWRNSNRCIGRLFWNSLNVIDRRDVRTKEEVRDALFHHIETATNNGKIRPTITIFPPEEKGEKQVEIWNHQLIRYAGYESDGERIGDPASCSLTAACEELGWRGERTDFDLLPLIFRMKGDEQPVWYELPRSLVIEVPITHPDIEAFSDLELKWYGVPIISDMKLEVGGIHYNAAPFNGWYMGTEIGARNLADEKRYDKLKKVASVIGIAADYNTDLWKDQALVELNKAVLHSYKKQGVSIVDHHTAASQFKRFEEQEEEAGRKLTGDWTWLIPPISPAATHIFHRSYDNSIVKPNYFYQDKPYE

Row | Structure (SMILES) | pKd
1 | N=C(Nc1cccc(CCc2cccc(NC(=N)c3cccs3)c2)c1)c1cccs1 [N-(3-{2-[3-(thiophene-2-imidamido)phenyl]ethyl}phenyl)thiophene-2-carboximidamide (19)] | 4.00
2 | CNCCN(c1cc(F)cc(CCc2cc(C)cc(N)n2)c1)C1CC1 [6-[2-(3-{cyclopropyl[2-(methylamino)ethyl]amino}-5-fluorophenyl)ethyl]-4-methylpyridin-2-amine (18)] | 4.21
3 | NC(=Nc1cccc(OCCOc2cccc(N=C(N)c3cccs3)c2)c1)c1cccs1 [N-(3-{2-[3-(thiophene-2-imidamido)phenoxy]ethoxy}phenyl)thiophene-2-carboximidamide (26)] | 3.90
4 | CNCCN(C)c1cccc(CCc2cc(C)cc(N)n2)c1 [4-methyl-6-[2-(3-{methyl[2-(methylamino)ethyl]amino}phenyl)ethyl]pyridin-2-amine (13)] | 4.30
5 | CNCCN(C)c1cncc(CCc2cc(C)cc(N)n2)c1 [4-methyl-6-[2-(5-{methyl[2-(methylamino)ethyl]amino}pyridin-3-yl)ethyl]pyridin-2-amine (14)] | 4.24

Stronger by pKd, values ahead:

Row | pKd | Structure (SMILES)
6 | 4.59 | Cc1cc(N)nc(CCc2cccc([C@H](N)Cc3cc(C)cc(N)n3)c2)c1
7 | 5.30 | Cc1cc(N)nc(CCc2cncc(CCc3cc(C)nc(N)c3)c2)c1 [6-(2-{5-[2-(2-amino-6-methylpyridin-4-yl)ethyl]pyridin-3-yl}ethyl)-4-methylpyridin-2-amine]
8 | 5.35 | Cc1cc(N)nc(CCc2cc(C#N)cc(CCc3cc(C)cc(N)n3)c2)c1
9 | 5.11 | N=C(Nc1cccc(COC[C@H]2C[C@H](OCc3cccc(NC(=N)c4cccs4)c3)CN2)c1)c1cccs1 [N-[3-({[(3S,5R)-5-({[3-(thiophene-2-imidamido)phenyl]methoxy}methyl)pyrrolidin-3-yl]oxy}methyl)phenyl]-2H-1λ⁴-thiophene-2-carboximidamide (28)]
10 | 5.06 | Cc1cc(N)nc(CCc2ccc(CCCN)c(CCc3cc(C)cc(N)n3)c2)c1
11 | 4.96 | N=C(Nc1cccc(COC[C@@H]2C[C@H](OCc3cccc(NC(=N)c4cccs4)c3)CN2)c1)c1cccs1 [N-[3-({[(3S,5S)-5-({[3-(thiophene-2-imidamido)phenyl]methoxy}methyl)pyrrolidin-3-yl]oxy}methyl)phenyl]-2H-1λ⁴-thiophene-2-carboximidamide (25)]
12 | 4.75 | N=C(Nc1cccc(CNC[C@@H]2CCCN2)c1)c1cccs1 [N-[3-({[(2S)-pyrrolidin-2-ylmethyl]amino}methyl)phenyl]thiophene-2-carboximidamide (20)]

Source: BindingDB's records for doi:10.1021/acs.biochem.5b00431 (University of California Irvine, 2015)
